Reference: PubChem BioAssay AID1259333 (Broad Institute, 2017)
Calls of active or inactive are those of the source. How the calls were made is not given here; tested in parental BL2 cells.

What follows are molecules tested on cytotoxicity, CellTiter-Glo ATP luminescence (assay: loss of cell viability by ATP content – CellTiter-Glo, cytotoxicity control, dose response (AID 1259333)).

Row | Compound | AC50
1 | CCN(CC)CCCNc1nc2ccccc2c2[nH]c3ccc(OC)cc3c12 | 6.93 µM
2 | CCN(CC)c1ccc(C(NC(=O)C(C)C)c2ccc3cccnc3c2O)cc1 (centres undefined) | 9.15 µM
3 | O=C(C1CC1)N1C[C@@H]2N[C@H](C1)[C@@H]2c1ccc(-c2ccncc2)cc1 | > 20 µM (inactive)
4 | CC(=O)O[C@H]1C[C@H](O[C@H]2[C@@H](O)C[C@H](O[C@H]3[C@@H](O)C[C@H](O[C@H]4CC[C@@]5(C)C(CCC6C5C[C@@H](O)[C@]5(C)[C@@H](C7=CC(=O)OC7)CC[C@]65O)C4)O[C@@H]3C)O[C@@H]2C)O[C@H](C)[C@H]1O[C@@H]1O[C@H](CO)[C@@H](O)[C@H](O)[C@H]1O (some centres undefined) | 0.758 µM
5 | Clc1ccc(COC(Cn2ccnc2)c2ccc(Cl)cc2Cl)c(Cl)c1 (centres undefined) | 8.13 µM
6 | Cc1c(CCOC(=O)CC23CC4CC(CC(C)(C4)C2)C3)sc[n+]1CC(=O)c1ccccc1 | 5.88 µM
7 | COC(=O)C[C@](O)(CCCC(C)(C)O)C(=O)O[C@@H]1C(OC)=C[C@]23CCCN2CCc2cc4c(cc2[C@H]13)OCO4 | > 20 µM (inactive)
8 | C[C@@H]1CN([C@H](C)CO)C(=O)c2c(c3ccccc3n2C)-c2ccccc2CO[C@@H]1CN(C)C(=O)c1cc(Cl)cc(Cl)c1 | 9.93 µM
9 | C[C@H]1CN([C@@H](C)CO)C(=O)c2c(c3ccccc3n2C)-c2ccccc2CO[C@H]1CN(C)C(=O)Nc1cccc(C(F)(F)F)c1 | 0.878 µM
10 | COc1cccc(-c2cc(=O)c3cc(OC)ccc3o2)c1 | 10.3 µM
11 | CC(C)=CCc1c2c(c3occ(-c4ccc(O)c(O)c4)c(=O)c3c1O)C=CC(C)(C)O2 | 5.55 µM
12 | O=C1c2c(O)ccc(O)c2C(=O)c2c(NCCNCCO)ccc(NCCNCCO)c21 | 5.78 µM
13 | CC(C)NC(=O)N1CC(=O)N2[C@H](CO)[C@@H](c3ccc(/C=C/c4ccccc4)cc3)[C@H]2C1 | > 20 µM (inactive)
14 | OCC1OC(n2cnc3cc(Cl)c(Cl)cc32)C(O)C1O (centres undefined) | > 20 µM (inactive)
15 | O=C(Nc1ccccn1)c1ccc(-c2ccccc2)cc1 | > 20 µM (inactive)
16 | N#Cc1cccc(-c2ccc(C3[C@H]4CNC[C@@H]3N4Cc3ccc4c(c3)OCO4)cc2)c1 (some centres undefined) | > 20 µM (inactive)
17 | COc1ccc(CN2CC3(CN(C(=O)Cc4ccccc4)C3)c3c([nH]c4cc(OC)ccc34)[C@@H]2CO)cc1 | 9.43 µM
18 | C[C@@H]1CN([C@@H](C)CO)C(=O)c2c(c3ccccc3n2C)-c2ccccc2CO[C@@H]1CN(C)Cc1cccc(C(F)(F)F)c1 | > 20 µM (inactive)
19 | CNC(=S)NN=C(C)CCCC(C)=NNC(=S)NC | 10.3 µM
20 | Fc1ccccc1CNCCC(Cc1ccccc1)c1ccc2c(c1)OCO2 (centres undefined) | > 20 µM (inactive)
21 | Cn1cnc(CCNC(=O)C[C@@H]2CC[C@@H]3[C@H](COC[C@@H](O)CN3C(=O)Nc3ccc(C(F)(F)F)cc3)O2)c1 | > 20 µM (inactive)

Row | Compound | AC50
22 | O=C(Nc1cccc(N2C(=O)C=CC2=O)c1)c1cccs1 | 2.26 µM
23 | C[C@H]1CN([C@@H](C)CO)C(=O)c2c(c3ccccc3n2C)-c2ccccc2CO[C@@H]1CN(C)C(=O)Nc1ccccc1C(F)(F)F | > 20 µM (inactive)
24 | CCCNC(=O)N1[C@H](C#N)[C@@H](c2ccc(-c3cccc(OC)c3)cc2)[C@H]1CO | > 20 µM (inactive)
25 | C[C@@H]1CN([C@@H](C)CO)C(=O)c2ccccc2-c2ccccc2CO[C@@H]1CN(C)Cc1ccc(Oc2ccccc2)cc1 | 8.71 µM
26 | CC(C)[C@H](N)C(=O)N[C@H]1CCC2C3CC=C4C[C@@H](O)CC[C@]4(C)C3CC[C@@]21C (some centres undefined) | 6.89 µM
27 | CO[C@H]1CC(O[C@@H]2/C(C)=C/C[C@@H]3C[C@@H](C[C@]4(CC[C@H](C)[C@@H](C5CCCCC5)O4)O3)OC(=O)[C@@H]3C=C(C)/C(=N/O)[C@H]4OC/C(=C\C=C\[C@@H]2C)[C@]43O)O[C@@H](C)C1O (some centres undefined) | 9.15 µM
28 | CC1OC(OC2CC(O)C3(CO)C4C(O)CC5(C)C(C6=CC(=O)OC6)CCC5(O)C4CCC3(O)C2)C(O)C(O)C1O (centres undefined) | 0.236 µM
29 | C[C@@H]1CN([C@H](C)CO)C(=O)c2cc(NC(=O)Nc3cccc4ccccc34)ccc2O[C@@H](C)CCCCO[C@H]1CN(C)Cc1ccc(C(F)(F)F)cc1 | > 20 µM (inactive)
30 | CCCC(=O)NC1=C(Cl)C(=O)c2ccccc2C1=O | 1.12 µM
31 | CCCNC(=O)N1[C@@H](C#N)[C@H](c2ccc(-c3cccc(OC)c3)cc2)[C@@H]1CO | > 20 µM (inactive)
32 | CC1=CC(C)(C)N=C(Nc2nc(C)c3cc(C)cc(C)c3n2)N1 | 1.46 µM
33 | COCCn1c(C)cc(C(=O)COC(=O)c2ccc(Cl)c(S(N)(=O)=O)c2)c1C | 3.01 µM
34 | N#C[C@H]1[C@H](c2ccc(C#CC3CCCCC3)cc2)[C@H](CO)N1C(=O)Nc1ccc(F)cc1 | > 20 µM (inactive)
35 | N#C[C@H]1[C@H](c2ccc(C#Cc3ccccc3F)cc2)[C@@H](CO)N1C(=O)C1CC1 | > 20 µM (inactive)
36 | NCCOc1ccc(C23CC4CC(CC(C4)C2)C3)cc1 | 4.9 µM
37 | OC(CCN1CCCCC1)c1ccc(-c2ccccc2)cc1 (centres undefined) | > 20 µM (inactive)
38 | Cc1noc(C)c1S(=O)(=O)Nc1ccc2c(c1)C(=O)N([C@H](C)CO)C[C@H](C)[C@@H](CN(C)C(=O)Nc1cccc3ccccc13)OCCCC[C@H](C)O2 | > 20 µM (inactive)
39 | C1CCC(C(CC2CCCCN2)C2CCCCC2)CC1 (centres undefined) | 2.37 µM
40 | COc1ccc2c3c(n(C)c2c1)[C@@H](CO)N(C(=O)Nc1ccc(F)cc1)CC31CN(Cc2ccccc2F)C1 | > 20 µM (inactive)
41 | N#C[C@@H]1[C@H](c2ccc(C#CC3CCCCC3)cc2)[C@@H](CO)N1C(=O)Nc1ccc(F)cc1 | > 20 µM (inactive)
42 | COC(=O)C1=C(C(=O)OC)C(C(=O)OC)C(C(=O)OC)C(C(=O)OC)(C(=O)OC)C(C(=O)OC)=C1C(=O)OC (centres undefined) | 7.79 µM

Row | Compound | AC50
43 | CC(C)Cc1ccc(C(C)CC2=CCC(CN(C)C)C2=O)cc1 (centres undefined) | 3.42 µM
44 | O=C(C1CCC1)N1CCc2cc(S(=O)(=O)N3CCCCC3)ccc21 | 2.65 µM
45 | CC(C)(C)OC(=O)CC(S(=O)(=O)c1ccccc1)S(=O)(=O)c1ccccc1 | 6.37 µM
46 | Cc1cc(OCC(=O)OCC(=O)NCc2ccco2)ccc1Cl | 2.21 µM
47 | CC1OC(CC(=O)O)CC2=C1C(=O)c1c(O)cccc1C2=O (centres undefined) | 1.06 µM
48 | C[C@@H]1O[C@@H](O[C@H]2C[C@@H](O)[C@]3(CO)[C@H]4[C@H](O)C[C@]5(C)[C@@H](C6COC(=O)C6)CC[C@]5(O)[C@@H]4CC[C@]3(O)C2)[C@H](O)[C@H](O)[C@H]1O (some centres undefined) | 1.87 µM
49 | Oc1c(Cl)cc(Cl)c(Cl)c1Cc1c(O)c(Cl)cc(Cl)c1Cl | 10.2 µM
50 | C[C@H](CO)N1C[C@H](C)[C@H](CN(C)CC2CCCCC2)OCCCC[C@H](C)Oc2ccc(NC(=O)Nc3ccc(C(F)(F)F)cc3)cc2C1=O | > 20 µM (inactive)
51 | C=C1CC(Cn2cc(Br)c(=O)[nH]c2=O)(c2ccc(-c3ccccc3)cc2)OC1=O (centres undefined) | 6.59 µM
52 | Cc1ccc(OCCn2cnc3c(N)ncnc32)cc1 | > 20 µM (inactive)
53 | Cc1ccc2c(=O)c3ccccc3n(CCCN)c2c1C | 2.79 µM
54 | CC(C(=O)O)c1ccc(N2Cc3ccccc3C2=O)cc1 (centres undefined) | 9.56 µM
55 | CC1CC(C)(O)CC(C(O)CC2CC(=O)NC(=O)C2)C1=O (centres undefined) | 7.54 µM
56 | CC(=O)NCCCC(=O)NC(CCC(=O)OCc1ccccc1)C(=O)OCc1ccccc1 (centres undefined) | 9.31 µM
57 | NC(c1csc(NC(=O)Nc2cccc(Cl)c2)n1)c1ccccc1Cl (centres undefined) | > 20 µM (inactive)
58 | CCCCCCCCCCCCCCCC[n+]1ccccc1 | 1.55 µM
59 | COc1c(O)cc2oc3cc(O)c(CC=C(C)C)c(O)c3c(=O)c2c1CC=C(C)C | 6.98 µM
60 | COC(=O)C12OCC34C(CC5C(C)=C(O)C(=O)CC5(C)C3C(O)C1O)OC(=O)C(OC(=O)C=C(C)C)C24 (centres undefined) | 3.11 µM
61 | O=C(Nc1ccc([N+](=O)[O-])cc1Cl)c1cc(Cl)ccc1O | > 7 µM (inactive)
62 | Cc1c(C(=O)c2cccc3ccccc23)c2cccc3c2n1[C@H](CN1CCOCC1)CO3 | 3.44 µM
63 | C[C@@H]1CN([C@H](C)CO)C(=O)c2ccccc2-c2ccccc2CO[C@@H]1CN(C)C(=O)c1cc(Cl)cc(Cl)c1 | 8.71 µM

Row | Compound | AC50
64 | CC1=CC2OC3CC4OC(=O)C=CC=CC(=O)OCCC(C)C(O)C(=O)OCC2(CC1O)C4(C)C31CO1 (centres undefined) | 7.23 µM
65 | N=C(N)c1ccc(OCCCCCOc2ccc(C(=N)N)cc2)cc1 | > 20 µM (inactive)
66 | C[C@H]1O[C@@H](O[C@H]2[C@@H](O)C[C@H](O[C@H]3[C@@H](O)C[C@H](O[C@H]4CC[C@]5(C)C6CC[C@]7(C)[C@@H](C8=CC(=O)OC8)CC[C@]7(O)C6CC[C@@H]5C4)O[C@@H]3C)O[C@@H]2C)C[C@H](O)[C@@H]1O (some centres undefined) | 2.2 µM
67 | COc1ccc2c(c1)c1ncn(Cc3ccccn3)c(=O)c1n2C | > 20 µM (inactive)
68 | CC(=O)OCC12CC(OC(=O)CC(C)C)C(C)=CC1OC1C(O)C(OC(C)=O)C2(C)C12CO2 (centres undefined) | 3.67 µM
69 | CC(C)(C)c1cc(C=C(C#N)C#N)cc(C(C)(C)C)c1O | > 20 µM (inactive)
70 | C[C@@H]1CCCCO[C@@H](CN(C)S(=O)(=O)c2ccc(Cl)cc2)[C@H](C)CN([C@H](C)CO)C(=O)c2cc(NC(=O)Nc3ccc(C(F)(F)F)cc3)ccc2O1 | 6.61 µM
71 | CC(C)c1ccc(NC(=O)Nc2nc(C(N)COCc3ccccc3)cs2)cc1 (centres undefined) | 4.21 µM
72 | CC[N+]1(C)CCC(O)(c2ccc(OC)cc2)C(C(=O)c2ccc(OC)cc2)C1 (centres undefined) | 5.1 µM
73 | COc1cc(C(=O)CCN2CCC(c3ccccc3)C2)cc(OC)c1OC (centres undefined) | 7.27 µM
74 | COc1ccc(S(=O)(=O)Nc2ccc3c(c2)C(=O)N([C@H](C)CO)C[C@H](C)[C@@H](CN(C)Cc2ccc(C(F)(F)F)cc2)OCCCC[C@@H](C)O3)cc1 | 10.5 µM
75 | C[C@@H]1CN([C@H](C)CO)C(=O)c2c(c3ccccc3n2C)-c2ccccc2CO[C@H]1CN(C)Cc1cccc(C(F)(F)F)c1 | > 20 µM (inactive)
76 | OC(c1cc(-c2cccc(Cl)c2)nc2ccccc12)C1CCCCN1 (centres undefined) | 2.86 µM
77 | Cc1cnc(NC(=O)c2ccccn2)s1 | 7.7 µM
78 | CC(=O)OC1CC2(O)C3CCC4CC(O)CCC4(C)C3CCC2(C)C1C1=CC(=O)OC1 (centres undefined) | 0.559 µM
79 | CC(C)OC(=O)c1cn(Cc2c(F)cccc2F)c2sc(-c3ccc(NC(=O)C(C)C)cc3)c(CN(C)Cc3ccccc3)c2c1=O | > 20 µM (inactive)
80 | OC1CC2CCC(C1)N2CCCN1c2ccccc2Sc2ccc(Cl)cc21 (centres undefined) | 10.6 µM
81 | Cc1ccsc1C(=O)OCC(=O)c1cc(C)n(CC2CCCO2)c1C (centres undefined) | > 20 µM (inactive)
82 | C[C@H](CO)N1C[C@H](C)[C@@H](CN(C)Cc2ccc(Oc3ccccc3)cc2)OCc2ccccc2-c2ccccc2C1=O | > 20 µM (inactive)
83 | CCCC(C)Sc1nc2c([nH]1)c(=S)n(C)c(=O)n2C (centres undefined) | 8.95 µM
84 | Cc1cc(C(=O)COC(=O)c2ccco2)c(C)n1Cc1ccco1 | > 20 µM (inactive)
